Data: ChEMBL document CHEMBL6096638, “Design, synthesis and biological evaluation of novel TMPRSS2-PROTACs with florosubstituted 4-guanidino-N-phenylbenzamide derivative ligands” (Bioorg Med Chem, 2024)
Activity calls are given as the source filed them. The calls are words filed in the database; no cut-off is given here.

Tests used:
Calu-3 [1] = assay: Antiproliferative activity against human Calu-3 cells assessed as inhibition of cell growth at 20 uM incubated for 48 hrs by CCK-8 assay relative to control; type: functional
HT-29 [2] = assay: Antiproliferative activity against human HT-29 cells assessed as inhibition of cell growth at 20 uM incubated for 48 hrs by CCK-8 assay relative to control; type: functional
DU-145 [3] = assay: Antiproliferative activity against human DU-145 cells assessed as inhibition of cell growth at 20 uM incubated for 48 hrs by CCK-8 assay relative to control; type: functional
A549 = assay: Antiproliferative activity against human A549 cells assessed as inhibition of cell growth incubated for 48 hrs by CCK-8 assay; type: functional, cell-based; conditions: A549, 48 h
DU-145 [4] = assay: Antiproliferative activity against human DU-145 cells assessed as inhibition of cell growth incubated for 48 hrs by CCK-8 assay; type: functional, cell-based; conditions: DU-145, 48 h
Calu-3 [5] = assay: Antiproliferative activity against human Calu-3 cells assessed as inhibition of cell growth incubated for 48 hrs by CCK-8 assay; type: functional, cell-based; conditions: Calu-3, 48 h
HT-29 [6] = assay: Antiproliferative activity against human HT-29 cells assessed as inhibition of cell growth incubated for 48 hrs by CCK-8 assay; type: functional, cell-based; conditions: HT-29, 48 h
MRC5 = assay: Antiproliferative activity against human MRC5 cells assessed as inhibition of cell growth incubated for 48 hrs by CCK-8 assay; type: functional, cell-based; conditions: MRC5, 48 h
NCI-H1299 = assay: Antiproliferative activity against human NCI-H1299 cells assessed as inhibition of cell growth incubated for 48 hrs by CCK-8 assay; type: functional, cell-based; conditions: NCI-H1299, 48 h
VCaP = assay: Antiproliferative activity against human VCaP cells assessed as inhibition of cell growth incubated for 48 hrs by CCK-8 assay; type: functional, cell-based
HepG2 = assay: Antiproliferative activity against human HepG2 cells assessed as inhibition of cell growth incubated for 48 hrs by CCK-8 assay; type: functional, cell-based; conditions: HepG2, 48 h
A-375 = assay: Antiproliferative activity against human A-375 cells assessed as inhibition of cell growth incubated for 48 hrs by CCK-8 assay; type: functional, cell-based; conditions: A-375, 48 h
SH-SY5Y = assay: Antiproliferative activity against human SH-SY5Y cells assessed as inhibition of cell growth incubated for 48 hrs by CCK-8 assay; type: functional, cell-based
786-0 = assay: Antiproliferative activity against human 786-0 cells assessed as inhibition of cell growth incubated for 48 hrs by CCK-8 assay; type: functional, cell-based; conditions: 786-0, 48 h
MCF7 = assay: Antiproliferative activity against human MCF7 cells assessed as inhibition of cell growth incubated for 48 hrs by CCK-8 assay; type: functional, cell-based; conditions: MCF7, 48 h
AGS = assay: Antiproliferative activity against human AGS cells assessed as inhibition of cell growth incubated for 48 hrs by CCK-8 assay; type: functional, cell-based
PC-3 = assay: Antiproliferative activity against human PC-3 cells assessed as inhibition of cell growth incubated for 48 hrs by CCK-8 assay; type: functional, cell-based; conditions: PC-3, 48 h
SK-N-AS = assay: Antiproliferative activity against human SK-N-AS cells assessed as inhibition of cell growth incubated for 48 hrs by CCK-8 assay; type: functional, cell-based
CWR22R = assay: Antiproliferative activity against human 22Rv1 cells assessed as inhibition of cell growth incubated for 48 hrs by CCK-8 assay; type: functional, cell-based; conditions: 22Rv1, 48 h
MDA-MB-231 = assay: Antiproliferative activity against human MDA-MB-231 cells assessed as inhibition of cell growth incubated for 48 hrs by CCK-8 assay; type: functional, cell-based; conditions: MDA-MB-231, 48 h
K562 = assay: Antiproliferative activity against human K562 cells assessed as inhibition of cell growth incubated for 48 hrs by CCK-8 assay; type: functional, cell-based; conditions: K562, 48 h

Structure (SMILES) | inhibition (Calu-3 [1]) | inhibition at 20 µM (HT-29 [2]) [%] | inhibition at 20 µM (DU-145 [3]) [%] | also measured
COc1cc(C(=O)Nc2ccc(CC(=O)Nc3ccc(CC(=O)NCCCCCCNc4cccc5c4C(=O)N(C4CCC(=O)NC4=O)C5=O)cc3)cc2)ccc1NC(=N)N (configuration not stated) | inactive | 32.7 | 16.5 | –
Cc1ncsc1-c1ccc(CNC(=O)[C@@H]2C[C@@H](O)CN2C(=O)[C@@H](NC(=O)CN2CCN(c3ccc(NC(=O)c4ccc(NC(=N)N)cc4)cc3)CC2)C(C)(C)C)cc1 | inactive | 29.7 | 9.51 | –
Cc1ncsc1-c1ccc(CNC(=O)[C@@H]2C[C@@H](O)CN2C(=O)[C@@H](NC(=O)COCCOCCOCCN2CCN(c3ccc(NC(=O)c4ccc(NC(=N)N)cc4)cc3)CC2)C(C)(C)C)cc1 | inactive | 14.4 | – | inhibition (DU-145 [3]): inactive
COc1cc(C(=O)Nc2ccc(CC(=O)Nc3ccc(N4CCN(CC5CCN(CC(=O)N[C@H](C(=O)N6C[C@H](O)C[C@H]6C(=O)NCc6ccc(-c7scnc7C)cc6)C(C)(C)C)CC5)CC4)cc3)cc2)ccc1NC(=N)N | – | 18.4 | 5.06 | inhibition at 20 µM (Calu-3 [1]): 5.66%
Cc1ncsc1-c1ccc(CNC(=O)[C@@H]2C[C@@H](O)CN2C(=O)[C@@H](NC(=O)CN2CCC(CN3CCN(c4ccc(NC(=O)c5ccc(NC(=N)N)cc5F)cc4)CC3)CC2)C(C)(C)C)cc1 | – | 91.9 | 56.9 | inhibition at 20 µM (Calu-3 [1]): 47.5%; IC50 (A549): 35.1 µM; IC50 (DU-145 [4]): 11.2 µM; IC50 (Calu-3 [5]): 21.4 µM; IC50 (HT-29 [6]): 3.83 µM; IC50 (MRC5): > 40 µM
Cc1ncsc1-c1ccc(CNC(=O)[C@@H]2C[C@@H](O)CN2C(=O)[C@@H](NC(=O)CN2CCC(CN3CCN(c4ccc(NC(=O)Cc5ccc(NC(=O)c6ccc(NC(=N)N)cc6)cc5)cc4)CC3)CC2)C(C)(C)C)cc1 | inactive | 25.9 | 5.63 | –
N=C(N)Nc1ccc(C(=O)Nc2ccc(CC(=O)NCCCCCC(=O)N3CCN(c4ccc5c(c4)C(=O)N(C4CCC(=O)NC4=O)C5=O)CC3)cc2)cc1 (configuration not stated) | inactive | 22.4 | 5.82 | –
N=C(N)Nc1ccc(C(=O)Oc2ccc3cc(C(=N)N)ccc3c2)cc1 [NAFAMOSTAT] | – | – | – | IC50 (NCI-H1299): 19.2 µM; IC50 (VCaP): > 40 µM; IC50 (HepG2): > 40 µM; IC50 (A-375): > 40 µM; IC50 (SH-SY5Y): 37.1 µM; IC50 (A549): > 40 µM; IC50 (786-0): > 40 µM; IC50 (DU-145 [4]): > 40 µM; IC50 (MCF7): > 40 µM; IC50 (Calu-3 [5]): 37.9 µM; IC50 (AGS): > 40 µM; IC50 (PC-3): 39.9 µM; IC50 (SK-N-AS): > 40 µM; IC50 (HT-29 [6]): > 40 µM; IC50 (CWR22R): > 40 µM; IC50 (MDA-MB-231): > 40 µM; IC50 (MRC5): > 40 µM; IC50 (K562): > 40 µM
COc1cc(C(=O)Nc2ccc(CC(=O)NCCCCCCC(=O)N[C@H](C(=O)N3C[C@H](O)C[C@H]3C(=O)NCc3ccc(-c4scnc4C)cc3)C(C)(C)C)cc2)ccc1NC(=N)N | inactive | 31.6 | 8.05 | –
Cc1ncsc1-c1ccc(CNC(=O)[C@@H]2C[C@@H](O)CN2C(=O)[C@@H](NC(=O)OCCOCCOCCOCc2cccc(NC(=O)c3ccc(NC(=N)N)cc3)c2)C(C)(C)C)cc1 | inactive | 15.1 | 13.7 | –
N=C(N)Nc1ccc(C(=O)Nc2ccc(CC(=O)N3CCC(CN4CCN(CCCNc5ccc6c(c5)C(=O)N(C5CCC(=O)NC5=O)C6=O)CC4)CC3)cc2)cc1 (configuration not stated) | – | 37.4 | 16.8 | inhibition at 20 µM (Calu-3 [1]): 5.77%
COc1cc(C(=O)Nc2cccc(COCCOCCOCCOC(=O)N[C@H](C(=O)N3C[C@H](O)C[C@H]3C(=O)NCc3ccc(-c4scnc4C)cc3)C(C)(C)C)c2)ccc1NC(=N)N | inactive | 30.1 | 8.88 | –
Cc1ncsc1-c1ccc(CNC(=O)[C@@H]2C[C@@H](O)CN2C(=O)[C@@H](NC(=O)CN2CCC(CN3CCN(c4ccc(NC(=O)c5ccc(NC(=N)N)cc5)cc4)CC3)CC2)C(C)(C)C)cc1 | inactive | 35.5 | 6.8 | –
COc1cc(C(=O)Nc2ccc(CC(=O)NCCCCCC(=O)N3CCN(c4ccc5c(c4)C(=O)N(C4CCC(=O)NC4=O)C5=O)CC3)cc2)ccc1NC(=N)N (configuration not stated) | inactive | 7.56 | 7.04 | –
Cc1ncsc1-c1ccc(CNC(=O)[C@@H]2C[C@@H](O)CN2C(=O)[C@@H](NC(=O)CN2CCC(CN3CCN(c4ccc(NC(=O)Cc5ccc(NC(=O)c6ccc(NC(=N)N)cc6F)cc5)cc4)CC3)CC2)C(C)(C)C)cc1 | inactive | 37.3 | 5.64 | –
COc1cc(C(=O)Nc2ccc(N3CCN(CC4CCN(CC(=O)N[C@H](C(=O)N5C[C@H](O)C[C@H]5C(=O)NCc5ccc(-c6scnc6C)cc5)C(C)(C)C)CC4)CC3)cc2)ccc1NC(=N)N | inactive | 42.3 | – | inhibition (DU-145 [3]): inactive
CC(=O)O[C@H]1C(=O)[C@@]2(C)[C@H]([C@H](OC(=O)c3ccccc3)[C@]3(O)C[C@H](OC(=O)[C@H](O)[C@@H](NC(=O)c4ccccc4)c4ccccc4)C(C)=C1C3(C)C)[C@]1(OC(C)=O)CO[C@@H]1C[C@@H]2O [PACLITAXEL] | – | – | – | IC50 (NCI-H1299): 1.15 µM; IC50 (VCaP): 5.54 µM; IC50 (A-375): 0.01 µM; IC50 (SH-SY5Y): 0.01 µM; IC50 (786-0): 0.08 µM; IC50 (DU-145 [4]): 0.01 µM; IC50 (Calu-3 [5]): 37.2 µM; IC50 (AGS): 0.01 µM; IC50 (PC-3): 7.56 µM; IC50 (SK-N-AS): 0.01 µM; IC50 (HT-29 [6]): 0.01 µM; IC50 (CWR22R): 0.04 µM; IC50 (MDA-MB-231): 0.06 µM; IC50 (MRC5): 0.11 µM; IC50 (K562): 0.01 µM
COc1cc(C(=O)Nc2ccc(N3CCN(CC(=O)N[C@H](C(=O)N4C[C@H](O)C[C@H]4C(=O)NCc4ccc(-c5scnc5C)cc4)C(C)(C)C)CC3)cc2)ccc1NC(=N)N | inactive | 30.7 | 6.76 | –
COc1cc(C(=O)Nc2ccc(CC(=O)N3CCC(CN4CCN(c5ccc6c(c5)C(=O)N(C5CCC(=O)NC5=O)C6=O)CC4)CC3)cc2)ccc1NC(=N)N (configuration not stated) | inactive | 37.7 | 14.6 | –
Cc1ncsc1-c1ccc(CNC(=O)[C@@H]2C[C@@H](O)CN2C(=O)[C@@H](NC(=O)COCCOCCOCCN2CCN(c3cccc(NC(=O)c4ccc(NC(=N)N)cc4)c3)CC2)C(C)(C)C)cc1 | inactive | 23.8 | 15.3 | –
Cc1ncsc1-c1ccc(CNC(=O)[C@@H]2C[C@@H](O)CN2C(=O)[C@@H](NC(=O)CN2CCN(c3ccc(NC(=O)c4ccc(NC(=N)N)cc4F)cc3)CC2)C(C)(C)C)cc1 | – | 34.4 | 14.4 | inhibition at 20 µM (Calu-3 [1]): 10.3%
COc1cc(C(=O)Nc2ccc(CC(=O)NCCCCCC(=O)Nc3cccc4c3CN(C3CCC(=O)NC3=O)C4=O)cc2)ccc1NC(=N)N (configuration not stated) | inactive | 18.9 | 9.05 | –
COc1cc(C(=O)Nc2ccc(CC(=O)NCCCCCCCC(=O)N[C@H](C(=O)N3C[C@H](O)C[C@H]3C(=O)NCc3ccc(-c4scnc4C)cc3)C(C)(C)C)cc2)ccc1NC(=N)N | inactive | 31.6 | 11.2 | –
COc1cc(C(=O)Nc2ccc(CC(=O)NCCCCCCNc3cccc4c3C(=O)N(C3CCC(=O)NC3=O)C4=O)cc2)ccc1NC(=N)N (configuration not stated) | inactive | 21.1 | 10.5 | –
COc1cc(C(=O)Nc2ccc(CC(=O)NCCCCCC(=O)N[C@H](C(=O)N3C[C@H](O)C[C@H]3C(=O)NCc3ccc(-c4scnc4C)cc3)C(C)(C)C)cc2)ccc1NC(=N)N | inactive | 20.5 | 7.56 | –
